The nature of data set [1]: Relative humidity stability at ambient temperature, analyzed by XRPD. Type of data set: physicochemical. An excerpt: Upon completion of the duration allowed, the samples were immediately analyzed by XRPD.
The conditions of data set [2]: solution supersaturated with respect to pterostilbene; after three days. The procedure:
Solubility and concentration measurements were performed using ultraviolet (UV) spectroscopy on a Spectramax Microplate Reader.
Appropriate dilutions with water were made as necessary to maintain absorbance readings within the standard curve. All experiments were repeated three times to evaluate the standard deviation, while particle size was not controlled for any of the experiments.
Aliquots were centrifuged; supernatant was extracted, and appropriate dilutions were made to maintain absorbance readings within the standard curve. […] All experiments were repeated three times to evaluate the standard deviation, while particle size was not controlled for any of the experiments.

The conditions of data set [3]: in vivo; cited from earlier work.
The conditions of data set [4]: Lopez-Nicolas 2009; cited from earlier work.
Data set [5] is classed as physicochemical. The procedure: Intrinsic dissolution in 900 mL water at ambient conditions was also attempted. […] Therefore, a concentration vs. time and intrinsic dissolution rate value were unobtainable at these conditions.

Consider `Cn1c(=O)c2c(ncn2C)n(C)c1=O` [caffeine, reference compound], for which the “Conversion to hydrate at 75% RH” value in data set [1] (75% RH, up to four weeks) is “does not display signs of conversion”. In data set [1] (94% RH), the “Time of partial conversion to hydrate at 94% RH” value is “between one and three days”. Moreover, in data set [1] (98% RH), the “Time of conversion to hydrate at 98% RH” value was “less than one day”.

For `COc1cc(/C=C/c2ccc(O)cc2)cc(OC)c1.Cn1c(=O)c2c(ncn2C)n(C)c1=O` [cocrystal 1 (Form I), pterostilbene:caffeine], the “Results (form by XRPD)” value is “cocrystal 1 (Form I), no caffeine hydrate” in data set [1] (additional stress at 98% RH, 1 week (listed after 75% RH, 1 week)); “cocrystal 1 (Form I), no caffeine hydrate” in data set [1] (additional stress at 98% RH, 4 weeks (listed after 94% RH, 7 days)); “cocrystal 1 (Form I), no caffeine hydrate” in data set [1] (additional stress at 98% RH, 1 day (listed after 75% RH, 1 day)); “cocrystal 1 (Form I), no caffeine hydrate” in data set [1] (slurry, 2 days). Also, the “Outcome of slurrying in water” value in data set [2] is “precipitation of pterostilbene”.

For the molecule `COc1cc(/C=C/c2ccc(O)cc2)cc(OC)c1` [pterostilbene, trans-3,5-dimethoxy-4′-hydroxystilbene], in data set [3], the Bioavailability entry was “poor bioavailability”. Further, in data set [4], the Solubility in water entry is on record as “poor solubility in water”.

For “pterostilbene:glutaric acid [cocrystal 3]”, in data set [5] (900 mL water at ambient conditions, after 30 minutes), the “XRPD result in intrinsic dissolution” value is listed as “crystalline pterostilbene”. The “XRPD result in powder dissolution” value in data set [5] (slurrying in water at ambient, after 5 minutes) is “crystalline pterostilbene”.

Source of the values: US8415507B2 (priority 2010, dated 2013).
